Laboratory results from patent publication US12636291B2, “Compositions and methods relating to use of agonists of ALPHA5-containing GABAA receptors” (Centre for Addiction and Mental Health, priority 2019, dated 2026).

Test system: SV129 mice
Assay: Neurogenesis (proliferation, survival, maturation) in the SV129 mouse model
Assay type: in vivo
Conditions: compared to VEH
Excerpt: We next assessed the effects of GL-II-73 on neurogenesis using the SV129 mouse model Kim et al. 2017. Neural Plasticity, doi.org.10.1155/2017/5863258. Specifically, we assessed the effects of treatment on neuronal cell proliferation, survival, and maturation. It is now recognized that neurogenesis occurs not only during development, but also in the adult brain. […] Specifically, adult neurogenesis is known to occur in three regions in the mammalian brain: (i) the subgranular zone (SGZ) of the dentate gyrus in the hippocampus, which is a region that is involved in regulating learning and memory; (ii) the subventricular zone (SVZ), which is situated throughout the lateral walls of the brain's lateral ventricles; and (ii) the amygdala. New neurons born in the SGZ migrate into the granule cell layer of the dentate gyrus and eventually become granule cells. These newborn neurons integrate into the existing circuitry and receive functional input. Adult neurogenesis in the hippocampus is therefore defined as the progression from neural stem cell to mature dentate granule neuron. All stages of adult neurogenesis are regulated by physiological activity, including the proliferation, differentiation, fate determination of adult neural stem cells (NSCs) and progenitors, and the survival, maturation, and integration of newborn neurons.
The stages of neurogenesis can be broken down into (i) proliferation, (ii) survival of the newly formed cells, and (iii) their maturation. Each can be evaluated using specific markers for proliferation, survival, and maturation. […] BrdU can be used to show survival of the newly proliferating cells since it is incorporated into the newly synthesized DNA of replicating cells and is then maintained in the newly formed cells. Thus, quantitative immunohistochemistry against BrdU is used as a proxy of survival. Finally, doublecortin can be used as a proxy of maturation. Previous studies have shown that all steps of neurogenesis were down regulated in the SV129 mice, and further that chronic treatment with fluoxetine, a first line monoaminergic antidepressant, increased the neurogenesis in this mouse model. We therefore used this model system to assess the effects of chronic treatment with GL-II-73 on neurogenesis.
Fluoxetine treatment was used as a positive control in each experiment.

C#Cc1ccc2c(c1)C(c1ccccc1F)=N[C@H](C)c1c(C(=O)N(C)C)ncn1-2 (stereo in doubt) [GL-II-73, 8-ethynyl-6-(2-fluorophenyl)-N,N,4-trimethyl-4H-benzo[f]imidazo[1,5-a][1,4]diazepine-3-carboxamide]
proliferation: number of K167-positive cells (chronic treatment (4 weeks), FIG. 13A, FLX p<0.001, GL-II-73 p<0.05): increased the number of K167-positive cells | survival: BrdU-positive cells (chronic treatment (4 weeks), FIG. 13B): increased survival as shown by the increased in BrdU labeling in SV129 mice, as shown in FIG. 13B, even though not reaching significance | maturation index (DCX+cells possessing tertiary dendrites over the total DCX+cells) (chronic treatment, FIG. 14B, ps<0.01): an increase with both FLX and GL-II-73
